In US20130237582A1, “PHARMACEUTICAL COMBINATION OF PACLITAXEL AND A CDK INHIBITOR” (Piramal Enterprises Limited, priority 2010, published 2013):

Columns and labels:
MDA-MB-231 [1] = test: Cytotoxicity assay using propidium iodide (PI); type: cell-based, human; conditions: Homo sapiens, 48 h treatment, PI assay
Protocol: (§1) The propidium iodide fluorescence assay (PI) was carried out according to the procedure mentioned in Anticancer Drugs, 1995, 6, 522-32. The assay was developed to characterize the in vitro growth of human tumor cell lines as well as to test the cytotoxic activity of the compounds. Propidium iodide (PI) was used as a dye, which penetrates only damaged cellular membranes. Intercalation complexes are formed by PI with double-stranded DNA, which effect an amplification of the fluorescence. After freezing the cells at −20° C. for 24 h, PI had access to total DNA leading to total cell population counts. Background readings were obtained from cell-free wells containing media and propidium iodide. The human breast cancer cell lines (i.e. […] Control wells were treated with vehicle (DMSO). At the end of the incubation periods, the plates were assayed using PI cytotoxicity assay protocol. Percent cytoxicity was calculated at various drug concentrations and from the graph plotted the IC50 values were determined.

MDA-MB-231 [2] = test: Combination in vitro cytotoxicity (PI) assay; type: cell-based; conditions: Homo sapiens, then CM 72 h, read-out: % inhibition of Group IA
Protocol: The propidium iodide fluorescence assay (PI) was carried out according to the procedure mentioned in Anticancer Drugs, 1995, 6, 522-32.
The assay was developed to characterize the in vitro growth of human tumor cell lines as well as to test the cytotoxic activity of the test compounds. Propidium iodide (PI) was used as a dye, which penetrates only, damaged cellular membranes. Intercalation complexes are formed by PI with double-stranded DNA, which effect an amplification of the fluorescence. After freezing the cells at −20° C. for 24 h, PI had access to total DNA leading to total cell population counts. Background readings were obtained from cell-free wells containing media and propidium iodide.
The human triple negative breast cancer cell line, MDA-MB-231 was seeded at a density of 1500-3000 cells/well in 180 μL of RPMI-1640 medium in a 96-well plate and incubated for about 16 h in humidified 5% CO2 incubator at 37±1° C. to allow the cells to adhere. The schedule consists of six treatment groups. In every treatment group, 20 μL of 10× compound (dissolved first in DMSO and then diluted in cell medium, final DMSO concentration not exceeding 0.5%) was used in the wells and the plate was incubated in humidified 5% CO2 incubator at 37±1° C. The medium was removed from the wells and washed with PBS. 100 μL of PI working solution (7 μg/mL) per well was added and the plates were stored at −80° C. for about 16 h. The plates were thawed and the fluorescence was measured using the POLARstar optima plate reader (USA) at excitation 536 nm and emission 590 nm.
(PI stock solution of 1 mg/mL was prepared by dissolving 1 mg PI in 1 mL of distilled water. PI working solution was prepared by adding 140 μL of stock solution to PBS to make up the volume to […] (7 μg/mL)).
The synergistic effects in TNBC MDA-MB-231 cell line have been evaluated using the CompuSyn software by Chou and Talalay, described in Pharmacological Reviews, 2006, 58, 621-681. Combination index (CI) is used to evaluate if a combination is additive, synergistic or antagonistic. CI<1 is synergistic, CI=1 is additive and CI>1 is antagonistic.

MDA-MB-468 [3] = test: Cytotoxicity assay using propidium iodide (PI); type: cell-based, human; conditions: Homo sapiens, 48 h treatment, PI assay
Protocol: as §1

BT-549 = test: Cytotoxicity assay using propidium iodide (PI); type: cell-based; conditions: Homo sapiens, 48 h treatment
Protocol: as §1

VEGF = VEGF reporter gene based assay (M-9 cells); type: cell-based; conditions: Homo sapiens, hypoxia, 20-24 h, read-out: IC50 for VEGF inhibition under hypoxia
Protocol: A cell line M-9 is MDA-MB-231 which is stably co-transfected with the VEGF-Luc construct (VEGF promoter in pGL2-basic) and a plasmid containing the Geneticin (G418) resistance gene which forms VEGF promoter reporter gene. The expression of the reporter gene in the clone cells, as measured by luciferase activity, is stable.
The effect of Compound A on VEGF inhibition was evaluated using the VEGF reporter gene based assay.
Lysis Assay Buffer (1×) • Tris-Phosphate (pH 7.8)-125 mM, DTT-10 mM, EDTA-10 mM, Glycerol-50% and Triton X-100-5%.
Luciferase Assay Reagent (LAR) • Luciferase Assay Buffer-8 mL, 530 μM ATP-530 μL, 270 μM CoA-1 mL and 170 μM Luciferin-1 mL.
Luciferase Assay Buffer (LAB) (1×) • Tricin (pH 7.8)-20 mM, Magnesia Alba-1.07 mM, MgSO4-2.67 mM, EDTA-0.1 mM and DTT-33.3 mM. ATP Stock made in LAB=5.85 mg/mL CoA Stock made in LAB=2.1 mg/mL Luciferin Stock made in LAB=1.5 mg/mL
1. M-9 cells were sub-cultured and maintained in RPMI-1640 Medium with supplement of 10% FBS, and 4 μL/ml G418 (Stock 100 mg/mL) in a humidified incubator at 37° C. and 5% CO2. 2. Cells were seeded at density of 3×10^4 cells/well in 180 μL volume in tissue culture grade 96 well white plates as well as transparent plates and allowed to adhere for 16-20 h in humidified CO2 incubator (5% CO2) at 37° C. A total of two sets of plates were made, as the incubation conditions are different. 3. Compound A, Sutent® and BSI-201 were diluted in medium serially so that final desired concentrations are achieved in the respective wells. (not more than 0.5% concentration of DMSO in the wells). 4. INCUBATION CONDITIONS: One set of plates are incubated under ambient atmospheric condition with 5% CO2, referred hereafter as NORMOXIC/OXIC PLATE. […] To all the wells, 100 μL Luciferase Assay Reagent (LAR) are added, plates are immediately read for Luminescence on TOPCOUNT™ (Packard, USA). The percentage inhibitions and Inhibitory Concentration (IC50) or Effective Concentration (EC50) are calculated in comparison with Control (untreated) values. […]

MDA-MB-468 [4] = test: Cell cycle progression and apoptosis by flow cytometry (sub-G1); type: cell-based, human; conditions: 50 μM
Protocol: Before analysis, cells were washed twice with PBS to remove the fixative and re-suspended in PBS containing 50 μg/mL propidium iodide and 50 μg/mL RNaseA. After incubation at room temperature (20-35° C.) for 20 min, cells were analyzed using flow cytometry. A Becton Dickinson FACS Calibur flow cytometer (BD, USA) was used for these studies. The argon ion laser set at 488 nm was used as an excitation source. Cells with DNA content between 2n and 4n were designated as being in G1, S and G2/M phases of the cell cycle, as defined by the level of red fluorescence. […] The number of cells in each cell cycle compartment was expressed as a percentage of the total number of cells present. The results are shown in Table 3 and graphically presented in FIG. 3A (MCF-7 cell lines) and FIG. 3B (MDA-MB-231 cell lines).
Comparison of the effect of Compound A and PARP inhibitor BSI-201 (Iniparib developed by Sanofi-Aventis. BSI-201 is prepared in-house) on cell cycle progression and apoptosis was evaluated in two TNBC cell lines. The asynchronous human TNBC cell lines MDA-MB-231 and MDA-MB-468 were seeded in […] tissue culture flask at a density of 0.5×10^6 cells per flask in RPMI 1460 with 10% FCS. After 24 h, cells were treated either with 1.5 and 3.0 μM of Compound A or 50 μM of PARP inhibitor BSI-201 for 72 h. After the incubation cells were harvested (trypsinised) and processed as given in example 6.

Row | SMILES | IC50 (MDA-MB-231 [1]) [µM] | inhibition at 0.03 µM (MDA-MB-231 [2]; paclitaxel 0.03 μM 24 h) [%] | inhibition at 0.1 µM (MDA-MB-231 [2]; paclitaxel 0.1 μM 24 h) [%] | inhibition at 0.3 µM (MDA-MB-231 [2]; paclitaxel 0.3 μM 24 h) [%] | inhibition at 1 µM (MDA-MB-231 [2]; paclitaxel 1.0 μM 24 h) [%] | inhibition at 3 µM (MDA-MB-231 [2]; paclitaxel 3.0 μM 24 h) [%] | IC50 (MDA-MB-468 [3]) [µM] | IC50 (BT-549) [µM] | IC50 (VEGF) [µM] | % apoptosis at 72 h (MDA-MB-468 [4]) [%]
1 | CC(=O)O[C@H]1C(=O)[C@@]2(C)[C@H]([C@H](OC(=O)c3ccccc3)[C@]3(O)C[C@H](OC(=O)[C@H](O)[C@@H](NC(=O)c4ccccc4)c4ccccc4)C(C)=C1C3(C)C)[C@]1(OC(C)=O)CO[C@@H]1C[C@@H]2O [Paclitaxel] | 0.9 | -2.6 | 8.3 | 82.9 | 88.7 | 89.1 | – | – | – | –
2 | CCN(CC)CCNC(=O)c1c(C)[nH]c(/C=C2\C(=O)Nc3ccc(F)cc32)c1C [Sunitinib, reference compound] | 7.8 | – | – | – | – | – | 10 | 18 | 15 | –
3 | NC(=O)c1ccc(I)c([N+](=O)[O-])c1 [BSI-201, reference compound] | – | – | – | – | – | – | – | – | > 100 | 12.67
